Laboratory results reported in ChEMBL document CHEMBL5375985, “Discovery of JN122, a Spiroindoline-Containing Molecule that Inhibits MDM2/p53 Protein-Protein Interaction and Exerts Robust In Vivo Antitumor Efficacy” (J Med Chem, 2023).

Key:
[1] = test system: HCT-116; test: Antiproliferative activity against human HCT-116 cells harboring p53 assessed inhibition of cell growth incubated for 4 days by CCK-8 assay; details: HCT-116, 96 h
[2] = test system: RKO; test: Antiproliferative activity against human RKO cells harboring p53 assessed inhibition of cell growth incubated for 4 days by CCK-8 assay; details: 96 h
[3] = target: T1, Protein Mdm4 (Homo sapiens, UniProt O15151); test: biochemical
T1 sequence (O15151 whole entry): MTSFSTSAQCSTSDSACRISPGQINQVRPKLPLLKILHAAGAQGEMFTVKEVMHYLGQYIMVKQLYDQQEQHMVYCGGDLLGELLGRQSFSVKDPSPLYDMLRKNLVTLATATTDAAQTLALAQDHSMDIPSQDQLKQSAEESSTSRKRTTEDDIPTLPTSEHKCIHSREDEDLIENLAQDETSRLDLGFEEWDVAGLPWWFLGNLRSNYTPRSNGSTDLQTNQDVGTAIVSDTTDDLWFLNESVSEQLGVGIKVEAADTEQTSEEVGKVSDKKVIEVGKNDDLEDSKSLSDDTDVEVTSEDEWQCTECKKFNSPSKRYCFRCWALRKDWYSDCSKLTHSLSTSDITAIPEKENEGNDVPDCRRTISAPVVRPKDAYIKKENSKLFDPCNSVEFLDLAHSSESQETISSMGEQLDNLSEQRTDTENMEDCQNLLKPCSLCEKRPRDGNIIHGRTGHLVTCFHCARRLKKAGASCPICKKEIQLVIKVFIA
Description: Inhibition of MDM4 (14 to 111 residues)/p53 (unknown origin) interaction expressed in Escherichia coli BL21(DE3) cells assessed as inhibition constant incubated for 1.5 hrs by competitive fluorescence polarization assay

[4] = test system: U2OS; test: Antiproliferative activity against human U2OS cells harboring p53 assessed inhibition of cell growth incubated for 4 days by celltiter-glo assay; details: 96 h
[5] = target: Tumour suppressor protein p53/Mdm4 (Homo sapiens, UniProt O15151); test: Binding affinity to MDM4/p53 (unknown origin) assessed as inhibition constant by FP assay
Chain of Tumour suppressor protein p53/Mdm4 (P04637 whole entry, one chain of several): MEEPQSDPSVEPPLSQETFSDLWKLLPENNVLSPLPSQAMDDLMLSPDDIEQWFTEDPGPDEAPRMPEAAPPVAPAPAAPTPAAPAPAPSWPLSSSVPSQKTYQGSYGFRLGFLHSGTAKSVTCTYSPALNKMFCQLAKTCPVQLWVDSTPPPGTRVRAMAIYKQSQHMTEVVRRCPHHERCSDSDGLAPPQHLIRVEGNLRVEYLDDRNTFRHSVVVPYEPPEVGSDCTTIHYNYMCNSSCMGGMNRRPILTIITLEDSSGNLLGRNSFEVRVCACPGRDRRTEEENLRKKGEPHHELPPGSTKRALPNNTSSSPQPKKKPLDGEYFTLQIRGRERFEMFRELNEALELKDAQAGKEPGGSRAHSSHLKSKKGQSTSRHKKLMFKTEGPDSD

[6] = target: Tumour suppressor p53/oncoprotein Mdm2 (Homo sapiens, UniProt Q00987); test: Binding affinity to MDM2/p53 (unknown origin) assessed as inhibition constant by FP assay
Chain of Tumour suppressor p53/oncoprotein Mdm2 (P04637 whole entry): as the sequence (P04637 whole entry, one chain of several) above
Chain of Tumour suppressor p53/oncoprotein Mdm2 (Q00987 whole entry): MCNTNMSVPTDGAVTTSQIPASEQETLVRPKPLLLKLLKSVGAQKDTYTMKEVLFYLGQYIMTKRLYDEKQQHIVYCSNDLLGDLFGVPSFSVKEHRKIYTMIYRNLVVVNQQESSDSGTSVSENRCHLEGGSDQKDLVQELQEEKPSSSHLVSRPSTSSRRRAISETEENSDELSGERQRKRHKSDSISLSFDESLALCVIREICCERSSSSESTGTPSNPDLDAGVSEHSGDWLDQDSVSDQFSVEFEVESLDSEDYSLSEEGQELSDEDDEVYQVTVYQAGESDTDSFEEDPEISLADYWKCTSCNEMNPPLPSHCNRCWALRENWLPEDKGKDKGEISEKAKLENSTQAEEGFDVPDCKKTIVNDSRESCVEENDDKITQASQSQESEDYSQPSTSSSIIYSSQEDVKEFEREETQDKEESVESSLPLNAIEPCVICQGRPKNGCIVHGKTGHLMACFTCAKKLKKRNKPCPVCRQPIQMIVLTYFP

[7] = test system: HCT-116; test: Antiproliferative activity against human HCT-116 cells harboring p53 assessed inhibition of cell growth incubated for 4 days by celltiter-glo assay; details: HCT-116, 96 h
[8] = test system: A549; test: Growth inhibition of human A549 cells harboring p53 incubated for 4 days by CCK-8 assay; details: A549, 96 h
[9] = test system: HepG2; test: Growth inhibition of human HepG2 cells harboring p53 incubated for 4 days by celltiter glo assay; details: HepG2, 96 h
[10] = test system: NCI-H460; test: Growth inhibition of human NCI-H460 cells harboring p53 incubated for 4 days by CCK-8 assay; details: NCI-H460, 96 h
[11] = test system: HeLa; test: Growth inhibition of human HeLa cells harboring p53 incubated for 4 days by CCK-8 assay; details: 96 h
[12] = test system: SW480; test: Growth inhibition of human SW480 cells incubated for 4 days by CCK-8 assay; details: SW480, 96 h
[13] = test system: MSTO-211H; test: cells; details: Homo sapiens, 96 h
Description: Growth inhibition of human MSTO-211H cells harboring p53 incubated for 4 days by CCK-8 assay

| Structure (SMILES) | IC50 [1] [nM] | IC50 [2] [nM] | IC50 [4] [nM] | further results |
| --- | --- | --- | --- | --- |
| CNC(=O)c1ccc(NC(=O)[C@@H]2N[C@@H](CC(C)(C)C)[C@@]3(CNc4cc(Cl)ccc43)[C@H]2c2cccc(Cl)c2F)c(OC)c1 | 22 | 243 | – | Ki [3]: > 27 nM |
| COc1cc(C(=O)O)ccc1NC(=O)[C@@H]1N[C@@H](CC(C)(C)C)[C@@]2(CNc3cc(Cl)ccc32)[C@H]1c1cccc(F)c1 | 1.3 | 66.9 | – | – |
| CCN1[C@@H](CC(C)(C)C)[C@@]2(CNc3cc(Cl)ccc32)[C@@H](c2ccccc2F)[C@@H]1C(=O)Nc1ccc(C(=O)O)cc1OC | 865 | 2940 | 3410 | – |
| COc1cc(C(=O)O)ccc1NC(=O)[C@@H]1N[C@@H](CC(C)(C)C)[C@@]2(CNc3cc(Cl)ccc32)[C@H]1c1cccc(C)c1 | 10 | 436 | – | – |
| CCN1[C@@H](CC(C)(C)C)[C@@]2(CNc3cc(Cl)ccc32)[C@@H](c2cccc(Cl)c2Cl)[C@@H]1C(=O)Nc1ccc(C(=O)O)cc1OC | 75.5 | 330 | 647 | – |
| O=C1CN(C(=O)N2C(c3ccc4c(c3)C(=O)NCC(=O)N4c3ccccc3)=N[C@@H](c3ccc(Cl)cc3)[C@H]2c2ccc(Cl)cc2)CCN1 | – | – | – | Ki [5]: 10.8 nM; Ki [6]: 2.1 nM |
| COc1cc(C(=O)O)ccc1NC(=O)[C@@H]1N[C@@H](CC(C)(C)C)[C@@]2(CNc3cc(Cl)ccc32)[C@H]1c1cccc(Cl)c1 | – | 12.9 | – | IC50 [7]: < 1 nM |
| CCN1[C@@H](CC(C)(C)C)[C@@]2(CNc3cc(Cl)ccc32)[C@@H](c2cccc(C)c2)[C@@H]1C(=O)Nc1ccc(C(=O)O)cc1OC | 144 | 1010 | 625 | – |
| CCN1[C@@H](CC(C)(C)C)[C@@]2(CNc3cc(Cl)ccc32)[C@@H](c2cccc(F)c2)[C@@H]1C(=O)Nc1ccc(C(=O)O)cc1OC | 25.7 | 172 | 304 | – |
| CCN1[C@@H](CC(C)(C)C)[C@@]2(CNc3cc(Cl)ccc32)[C@@H](c2ccccc2Cl)[C@@H]1C(=O)Nc1ccc(C(=O)O)cc1OC | 2040 | 5240 | 2820 | – |
| COc1ccc(C2=N[C@@H](c3ccc(Cl)cc3)[C@@H](c3ccc(Cl)cc3)N2C(=O)N2CCNC(=O)C2)c(OC(C)C)c1 [NUTLIN-3] | 1040 | 1920 | – | IC50 [8]: 1880 nM; IC50 [9]: 2050 nM; IC50 [10]: 6.49 nM; IC50 [11]: 28.2 nM; IC50 [12]: 24.1 nM; IC50 [13]: 2800 nM |
| CCN1[C@@H](CC(C)(C)C)[C@@]2(CNc3ccc(Cl)cc32)[C@@H](c2cccc(Cl)c2Cl)[C@@H]1C(=O)Nc1ccc(C(=O)O)cc1OC | 1400 | 4430 | 1840 | – |
